Results from ChEMBL document CHEMBL1201862, “PubChem BioAssay data set” (2004).
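Results reflect a 48-hour exposure of cells in 96-well plates to compound at five concentrations. GI50 is the concentration that inhibits growth by half.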 The source made the active and inactive calls. Rule as the data show it: active = GI50 up to about 1.1 µM and inactive = higher.

Assays:
Test in all cases: growth of human tumour cells (NCI), 48 h
[1] = test system: 786-0
[2] = test system: A549
[3] = test system: ACHN
[4] = test system: COLO 205
[5] = test system: HCT-15
[6] = test system: HL-60
[7] = test system: HOP-62
[8] = test system: IGROV-1
[9] = test system: K562
[10] = test system: KM12
[11] = test system: LOX IMVI
[12] = test system: M14
[13] = test system: MCF7
[14] = test system: MDA-N
[15] = test system: NCI-H522
[16] = test system: OVCAR-8
[17] = test system: SF-268
[18] = test system: SF-539
[19] = test system: SNB-19
[20] = test system: SR

| SMILES | GI50 [1] | GI50 [2] | GI50 [3] | GI50 [4] | GI50 [5] [µM] | GI50 [6] | GI50 [7] | GI50 [8] | GI50 [9] | GI50 [10] | GI50 [11] | GI50 [12] | GI50 [13] | GI50 [14] | GI50 [15] | GI50 [16] | GI50 [17] | GI50 [18] | GI50 [19] | GI50 [20] |
| --- | --- | --- | --- | --- | --- | --- | --- | --- | --- | --- | --- | --- | --- | --- | --- | --- | --- | --- | --- | --- |
| CCOc1ccc2ccc3cccnc3c2n1 | 66.2 µM (inactive) | 61 µM (inactive) | 40.6 µM (inactive) | 28.7 µM (inactive) | 54.3 | 22.3 µM (inactive) | 18.5 µM (inactive) | 38.5 µM (inactive) | 31.9 µM (inactive) | 45.4 µM (inactive) | 49.1 µM (inactive) | 47.2 µM (inactive) | 18.4 µM (inactive) | > 100 µM (inactive) | > 100 µM (inactive) | 72.8 µM (inactive) | > 100 µM (inactive) | > 100 µM (inactive) | > 100 µM (inactive) | 18.9 µM (inactive) |
| CC(=O)OC1[C@H](n2ccnc2)C[C@H]2[C@@H]3CC=C4CC(N5CCCC5)CC[C@]4(C)[C@H]3CC[C@]12C (stereo not given in full) | 22.5 µM (inactive) | 41.4 µM (inactive) | 52.2 µM (inactive) | 23.7 µM (inactive) | 21.3 | 12.1 µM (inactive) |  | 43.7 µM (inactive) | 17.1 µM (inactive) | 58.3 µM (inactive) | 10.1 µM (inactive) | 21.8 µM (inactive) | 33.9 µM (inactive) | 28.1 µM (inactive) | 24.1 µM (inactive) | 62.5 µM (inactive) | 34.8 µM (inactive) | 14.1 µM (inactive) | > 100 µM (inactive) | 12 µM (inactive) |
| COc1cc2c(cc1OC)C1=CCC(c3ccccc3)[N+]1(C)CC2 (stereo not given) | > 100 µM (inactive) | > 100 µM (inactive) | > 100 µM (inactive) | > 100 µM (inactive) | > 100 | > 100 µM (inactive) |  | > 100 µM (inactive) | > 100 µM (inactive) | > 100 µM (inactive) | > 100 µM (inactive) | > 100 µM (inactive) | > 100 µM (inactive) | > 100 µM (inactive) |  | > 100 µM (inactive) | > 100 µM (inactive) | > 100 µM (inactive) | > 100 µM (inactive) | > 100 µM (inactive) |
| Cc1ccc(C(=O)/C=C2\Nc3ccccc3N=C2NC23CC4CC(CC(C4)C2)C3)cc1 | > 10 µM (inactive) | > 10 µM (inactive) | > 10 µM (inactive) | > 10 µM (inactive) | > 10 | > 10 µM (inactive) | > 10 µM (inactive) | > 10 µM (inactive) | > 10 µM (inactive) | > 10 µM (inactive) | > 10 µM (inactive) | > 10 µM (inactive) | > 10 µM (inactive) | > 10 µM (inactive) | > 10 µM (inactive) | > 10 µM (inactive) | > 10 µM (inactive) | > 10 µM (inactive) | > 10 µM (inactive) | > 10 µM (inactive) |
| O=[N+]([O-])c1c2nc3n(c2cc2c1nc1n2CCC1)CCC3 | > 100 µM (inactive) | > 100 µM (inactive) | > 100 µM (inactive) | > 100 µM (inactive) | > 100 | > 100 µM (inactive) | > 100 µM (inactive) | > 100 µM (inactive) | > 100 µM (inactive) | > 100 µM (inactive) | > 100 µM (inactive) | > 100 µM (inactive) | > 100 µM (inactive) | > 100 µM (inactive) | > 100 µM (inactive) | > 100 µM (inactive) | > 100 µM (inactive) | > 100 µM (inactive) | > 100 µM (inactive) | > 100 µM (inactive) |
| CCOC(=O)N/N=C(\CC)NO | > 100 µM (inactive) | > 100 µM (inactive) | > 100 µM (inactive) | > 100 µM (inactive) | > 100 | > 100 µM (inactive) | > 100 µM (inactive) | > 100 µM (inactive) | > 100 µM (inactive) | > 100 µM (inactive) | > 100 µM (inactive) |  | > 100 µM (inactive) | > 100 µM (inactive) | > 100 µM (inactive) | > 100 µM (inactive) | > 100 µM (inactive) | > 100 µM (inactive) | > 100 µM (inactive) | > 100 µM (inactive) |
| CN(C)CCCCCNc1c2ccccc2nc2cccc([N+](=O)[O-])c12 | 0.00133 µM (active) | 0.000685 µM (active) | 0.000766 µM (active) | 0.000524 µM (active) |  | 0.00143 µM (active) | 0.00149 µM (active) | 0.0022 µM (active) | 0.000986 µM (active) | 0.00957 µM (active) | 0.00289 µM (active) | 0.00146 µM (active) | 0.00583 µM (active) | 0.000187 µM (active) |  | 0.00177 µM (active) | 0.00118 µM (active) | 0.0036 µM (active) | 0.00413 µM (active) | 0.000447 µM (active) |
| CCOC(=O)C1=NN(c2ccccc2)C(=O)/C1=C\NC(=S)C(N)=S | 20.7 µM (inactive) | 66.1 µM (inactive) | 21.5 µM (inactive) | 28.1 µM (inactive) | 34.1 | 38.9 µM (inactive) | > 100 µM (inactive) | 42.6 µM (inactive) | 38 µM (inactive) | 70.6 µM (inactive) | 37.8 µM (inactive) | 26.5 µM (inactive) | 36.1 µM (inactive) | 32.8 µM (inactive) | 16.6 µM (inactive) | 45.5 µM (inactive) | 38.5 µM (inactive) | 23.2 µM (inactive) | 64.9 µM (inactive) | 35.2 µM (inactive) |
| COc1ccc(/C(Cl)=C(\C=O)c2ccc(OC)c(OC)c2)cc1OC | > 100 µM (inactive) | > 100 µM (inactive) | > 100 µM (inactive) | > 100 µM (inactive) | 83 | 22.2 µM (inactive) | > 84.7 µM (inactive) | 95.3 µM (inactive) | > 100 µM (inactive) | 32.5 µM (inactive) | 33.7 µM (inactive) | > 100 µM (inactive) | 56.8 µM (inactive) | > 100 µM (inactive) | 43.5 µM (inactive) | > 94.6 µM (inactive) | 37.2 µM (inactive) | 94.6 µM (inactive) | > 100 µM (inactive) | > 100 µM (inactive) |
| COC(=O)c1c(OC(C)=O)ccc2c1c1c(n2C)C(=O)c2ccccc2C1=O | 25.5 µM (inactive) | 20.7 µM (inactive) | 15.6 µM (inactive) | 55.3 µM (inactive) | 24.8 | 32.1 µM (inactive) | 17.3 µM (inactive) | 3.86 µM (inactive) | 66.2 µM (inactive) | 29.1 µM (inactive) |  | 35.2 µM (inactive) | 18.7 µM (inactive) | 19 µM (inactive) | 21.7 µM (inactive) | 25.8 µM (inactive) | 24.4 µM (inactive) | 19.1 µM (inactive) | 33.7 µM (inactive) | 31.1 µM (inactive) |
| Nc1ncnc2c1ncn2C1OC(CO)=CC1O (stereo not given) | > 37.5 µM (inactive) | > 37.5 µM (inactive) | > 37.5 µM (inactive) | > 37.5 µM (inactive) | > 37.5 | > 37.5 µM (inactive) | > 37.5 µM (inactive) | > 37.5 µM (inactive) | > 37.5 µM (inactive) | > 37.5 µM (inactive) | > 37.5 µM (inactive) | > 37.5 µM (inactive) | > 37.5 µM (inactive) | > 37.5 µM (inactive) | > 37.5 µM (inactive) | > 37.5 µM (inactive) | > 37.5 µM (inactive) | > 37.5 µM (inactive) | > 37.5 µM (inactive) | > 37.5 µM (inactive) |
| COc1ccc(C2CC(=O)CC(c3ccc(OC)cc3)C23C(=O)NC(=O)NC3=O)cc1 (stereo not given) | 30.5 µM (inactive) |  | 31.3 µM (inactive) | 32.1 µM (inactive) | 67.8 | 27 µM (inactive) | 13.8 µM (inactive) | 26.2 µM (inactive) | 37.9 µM (inactive) | 25.6 µM (inactive) | 30.5 µM (inactive) | 52.5 µM (inactive) | 25.1 µM (inactive) | 31.8 µM (inactive) | 23.3 µM (inactive) | 32.2 µM (inactive) | 44.1 µM (inactive) | > 100 µM (inactive) | 35.3 µM (inactive) | 30.4 µM (inactive) |
| CN(NC(=O)c1ccco1)C1=NCCCCN1 | > 100 µM (inactive) | > 100 µM (inactive) | > 100 µM (inactive) | > 100 µM (inactive) | > 100 | > 100 µM (inactive) | > 100 µM (inactive) | > 100 µM (inactive) | > 100 µM (inactive) | > 100 µM (inactive) | > 100 µM (inactive) | > 100 µM (inactive) | > 100 µM (inactive) | > 100 µM (inactive) | > 100 µM (inactive) | > 100 µM (inactive) | > 100 µM (inactive) | > 100 µM (inactive) | > 100 µM (inactive) | > 100 µM (inactive) |
| O=C1NC2CCCCC2N=C1CC(=O)c1ccc(Br)cc1 (stereo not given) | 64.1 µM (inactive) | 6 µM (inactive) | 49.1 µM (inactive) | > 100 µM (inactive) | 29.4 | > 100 µM (inactive) | 31.8 µM (inactive) | 5.22 µM (inactive) | > 100 µM (inactive) | > 100 µM (inactive) | 19.2 µM (inactive) | > 100 µM (inactive) | 18 µM (inactive) | > 100 µM (inactive) | 3.05 µM (inactive) | 4.19 µM (inactive) | 28.6 µM (inactive) | 26.8 µM (inactive) | > 100 µM (inactive) | > 100 µM (inactive) |
| CCC[C@H]1C(=O)N=C(N)N1C(=O)OCc1ccccc1 | > 100 µM (inactive) |  | > 100 µM (inactive) | > 100 µM (inactive) | > 100 | > 100 µM (inactive) | > 100 µM (inactive) | > 100 µM (inactive) | > 100 µM (inactive) | > 100 µM (inactive) | > 100 µM (inactive) |  | > 100 µM (inactive) | > 100 µM (inactive) | > 100 µM (inactive) | > 100 µM (inactive) | > 100 µM (inactive) | > 100 µM (inactive) | > 100 µM (inactive) | > 100 µM (inactive) |
